The subject of experiment [1] is MLL-AF9 cells. Briefly: MLL-AF9 leukemia cell growth inhibition, dose-response viability assay (CellTiterGlo). As to conditions: Mus musculus, MLL-AF9, 120 h, read-out: MLL-AF9 EC50. Format: cell-based, murine. The gist of the method:
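Murine MLL-AF9 leukemia cells (female, MSCV MLL-AF9 IRES Puro transduced) were treated with serial compound dilutions from 10 μM to 0.5 nM in duplicates or quadruplicates. Viability read by CellTiterGlo dose-response.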

For experiment [2], the system named is OCI-AML3 cells. Briefly: OCI-AML3 cell growth inhibition, dose-response viability assay (CellTiterGlo). Format: cell-based. As to conditions: for EC50: Homo sapiens, OCI-AML-3, 144 h, read-out: AML-3 EC50. The gist of the method: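 OCI-AML3 cells seeded, then exposed to compound in serial dilutions from 10 μM to 0.5 nM, in duplicate or quadruplicate. Viability read by CellTiter-Glo.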

Experiment [3] deals with AML patient cells. The experiment in a line: Primary AML patient cell dose-response viability assay (chemical screen). The settings on record: 41 AML patient specimens, primary screen.

With `Fc1cc(F)c2cc(-c3nc(COc4ccc(CCCCn5ccnn5)cc4)co3)[nH]c2c1` [Compound 128, 4-((4-(4-(1H-1,2,3-triazol-1-yl)butyl)phenoxy)methyl)-2-(4,6-difluoro-1H-indol-2-yl)oxazole], the concentration giving a half-maximal response (EC50) in experiment [1] and in experiment [2] was below 50 nM in each case.
For `O=[N+]([O-])c1ccc2cc(-c3nc(COc4ccc(CCCCn5ccnn5)cc4)co3)[nH]c2c1` [Compound 129, 4-((4-(4-(1H-1,2,3-triazol-1-yl)butyl)phenoxy)methyl)-2-(6-nitro-1H-indol-2-yl)oxazole], the 50% effective concentration (EC50) in experiment [1] and in experiment [2] was below 50 nM in each case.
As for `Fc1cc(C(F)(F)F)ccc1/C=C/c1nc(COc2ccc(SCCCn3ccnn3)cc2)co1` [Compound 130, (E)-4-((4-((3-(1H-1,2,3-triazol-1-yl)propyl)thio)phenoxy)methyl)-2-(2-fluoro-4-(trifluoromethyl)styryl)oxazole], the EC50 in experiment [1] and in experiment [2] was below 50 nM in each case.
In the case of `Fc1cc(C(F)(F)F)ccc1/C=C/c1nc(COc2ccc(CCCCn3ccnn3)cc2)cs1` [Compound 131, (E)-4-((4-(4-(1H-1,2,3-triazol-1-yl)butyl)phenoxy)methyl)-2-(2-fluoro-4-(trifluoromethyl)styryl)thiazole], the concentration for a half-maximal effect (EC50) in experiment [1] and in experiment [2] was 100 to 500 nM in each case.
Regarding `Fc1cc(C(F)(F)F)ccc1/C=C/c1nc(CSc2ccc(CCCn3ccnn3)cc2)co1` [Compound 132, (E)-4-(((4-(3-(1H-1,2,3-triazol-1-yl)propyl)phenyl)thio)methyl)-2-(2-fluoro-4-(trifluoromethyl)styryl)oxazole], the half-maximal effective concentration (EC50) lay in the range of 500 to 1000 nM in experiment [1] and 1000 to 10000 nM in experiment [2].
For the molecule `Fc1cc(C(F)(F)F)ccc1/C=C/c1nc(COc2ccc(CCCCn3ccnn3)nc2)co1` [Compound 133, (E)-4-(((6-(4-(1H-1,2,3-triazol-1-yl)butyl)pyridin-3-yl)oxy)methyl)-2-(2-fluoro-4-(trifluoromethyl)styryl)oxazole], the values for the half-maximal effective concentration (EC50) in experiment [1] and in experiment [2] were 50 to 100 nM and 100 to 500 nM, respectively.
Take `Fc1cc(C(F)(F)F)ccc1/C=C/c1nc(Cc2ccc(CCCCn3ccnn3)cc2)co1` [Compound 134, (E)-4-(4-(4-(1H-1,2,3-triazol-1-yl)butyl)benzyl)-2-(2-fluoro-4-(trifluoromethyl)styryl)oxazole]: the EC50 in experiment [1] was 500 to 1000 nM; in experiment [2] it was 1000 to 10000 nM.
Take `Fc1cc(C(F)(F)F)ccc1/C=C/c1nc(COc2ccc(CCCCc3cccnn3)cc2)co1` [Compound 138, (E)-2-(2-fluoro-4-(trifluoromethyl)styryl)-4-((4-(4-(pyridazin-3-yl)butyl)phenoxy)methyl)oxazole]: the results for the EC50 in experiment [1] and in experiment [2] were 50 to 100 nM and below 50 nM, respectively.
For `Fc1cc(C(F)(F)F)ccc1/C=C/c1nc(COc2ccc(CCCCc3ncccn3)cc2)co1` [Compound 139, (E)-2-(2-fluoro-4-(trifluoromethyl)styryl)-4-((4-(4-(pyrimidin-2-yl)butyl)phenoxy)methyl)oxazole], the EC50 in experiment [1] was 1000 to 10000 nM; in experiment [2] it was above 10000 nM.
Taken in the same sequence, the figures for `Fc1cc(C(F)(F)F)ccc1/C=C/c1nc(COc2ccc(CCCCc3ccccn3)cc2)co1` [Compound 140, (E)-2-(2-fluoro-4-(trifluoromethyl)styryl)-4-((4-(4-(pyridin-2-yl)butyl)phenoxy)methyl)oxazole] were 1000 to 10000 nM and above 10000 nM.
With `N#Cc1ccc(/C=C/c2nc(COc3ccc(SCCCn4ccnn4)cc3)co2)c(F)c1` [Compound 141, (E)-4-(2-(4-((4-((3-(1H-1,2,3-triazol-1-yl)propyl)thio)phenoxy)methyl)oxazol-2-yl)vinyl)-3-fluorobenzonitrile], the EC50 in experiment [1] is 50 to 100 nM; in experiment [2], below 50 nM.
As to `Fc1ccc2cc(-c3nc(COc4ccc(CCCCn5ccnn5)cc4)co3)oc2c1` [Compound 142, 4-((4-(4-(1H-1,2,3-triazol-1-yl)butyl)phenoxy)methyl)-2-(6-fluorobenzofuran-2-yl)oxazole], the EC50 lay in the range of 100 to 500 nM in experiment [1] and 500 to 1000 nM in experiment [2].
Taken in the same sequence, the figures for `Fc1ccc2cc(-c3nc(COc4ccc(CCCCn5ccnn5)cc4)co3)sc2c1` [Compound 143, 4-((4-(4-(1H-1,2,3-triazol-1-yl)butyl)phenoxy)methyl)-2-(6-fluorobenzo[b]thiophen-2-yl)oxazole] were 100 to 500 nM and 1000 to 10000 nM.
The matching figures for `Fc1cc(F)c2cc(-c3nc(COc4ccc(SCCCn5ccnn5)cc4)co3)[nH]c2c1` [Compound 144, 4-((4-((3-(1H-1,2,3-triazol-1-yl)propyl)thio)phenoxy)methyl)-2-(4,6-difluoro-1H-indol-2-yl)oxazole]: below 50 nM and below 50 nM.
In the case of `Cc1oc(/C=C/c2ccc(C(F)(F)F)cc2F)nc1COc1ccc(CCCCn2ccnn2)cc1` [Compound 145, (E)-4-((4-(4-(1H-1,2,3-triazol-1-yl)butyl)phenoxy)methyl)-2-(2-fluoro-4-(trifluoromethyl)styryl)-5-methyloxazole], the EC50 was in the range of 100 to 500 nM in experiment [1] and 500 to 1000 nM in experiment [2].
Taken in the same sequence, the figures for `Fc1cc(C(F)(F)F)ccc1/C=C/c1nc(CSc2ccc(CCCCn3ccnn3)cc2)co1` [Compound 146, (E)-4-(((4-(4-(1H-1,2,3-triazol-1-yl)butyl)phenyl)thio)methyl)-2-(2-fluoro-4-(trifluoromethyl)styryl)oxazole] were 100 to 500 nM and 1000 to 10000 nM.
With `Fc1cc(C(F)(F)F)ccc1/C=C/c1nc(COc2ccc(SCCn3ccnn3)cc2)co1` [Compound 147, (E)-4-((4-((2-(1H-1,2,3-triazol-1-yl)ethyl)thio)phenoxy)methyl)-2-(2-fluoro-4-(trifluoromethyl)styryl)oxazole], the concentration for a half-maximal effect (EC50) in experiment [1] and in experiment [2] was below 50 nM throughout.
On to `CS(=O)(=O)CCNCc1ccc(-c2ccc3ncnc(Nc4ccc(OCc5cccc(F)c5)c(Cl)c4)c3c2)o1` [Lapatinib, Lapatinib ditosylate, reference compound], for which the “OCI-AML3 cells sensitive to the compound (dose response)” value in experiment [2] (OCI-AML3 cells) was “not”. The “sensitivity of AML patient specimens” value in experiment [3] was “resistant”.

These data come from patent US11760754B2, “Heterocyclic mitochondrial activity inhibitors and uses thereof” (UNIVERSITÉ DE MONTRÉAL, priority 2017, dated 2023).
